This assay has as its system Rhino mouse skin. The assay is described as follows: Histology after suboptimal trypsin, all-trans retinoic acid or both. In kind it is in vivo. The conditions noted are these: suboptimal dose alone: 0.005% (w/v) trypsin or 0.0005% (w/v) all-trans retinoic acid. As for the experimental part: A first set of Rhino mice of Example 1 were treated with suboptimal doses of the trypsin composition of Example 2. […] A second set of Rhino mice of Example 1 were treated with suboptimal concentrations of the all-trans retinoic acid composition of Example 2. A third set of Rhino mice of Example 1 were treated with both suboptimal doses of the trypsin composition of Example 2 and the all-trans retinoic acid composition of Example 2. In this third set of Rhino mice, the trypsin and all-trans retinoic acid treatments were each administered daily, but at different times (i.e. trypsin in the morning and all-trans retinoic acid in the afternoon). Mice were sacrificed and their skins were examined histologically with the procedure set forth in Example 3.

Turning to `CC1=C(/C=C/C(C)=C/C=C/C(C)=C/C(=O)O)C(C)(C)CCC1` [all-trans retinoic acid, reference compound], the “skin histology of treatment given alone vs untreated skin” value is recorded as “marked inprovement”.

The record behind these values is US20040022780A1, “Serine protease and topical retinoid compositions useful for treatment of acne vulgarise and production of anti-aging effects” (priority 1997, published 2004).
